Measured values published in patent US20200046870A1, “MATERIALS COMPRISING HYDROPHOBICALLY-MODIFIED BIOPOLYMER” (GEL-E LIFE SCIENCES, priority 2016, published 2020).

Tested on: Methicillin-resistant Staphylococcus aureus (MRSA)
Assay: antimicrobial properties against MRSA (log killing)
Type: cell-based
Conditions: high dose (100 μg/ml)
Experimental: FIG. 2 compares the antimicrobial properties of chitosan and hydrophobically modified chitosan, alongside ampicillin, against Methicillin-resistant Staphylococcus aureus (MRSA). Hm-chitosan at 0.5 wt % achieves a log killing of >2, whereas native chitosan (0.5 wt %) achieves a log killing of ˜1. In contrast, ampicillin at high dose (100 μg/ml) achieves only ˜0.5 log killing.

For `CC1(C)S[C@@H]2[C@H](NC(=O)[C@H](N)c3ccccc3)C(=O)N2[C@H]1C(=O)O` [ampicillin], which log killing is on record?
Its log killing is roughly 0.5 log.
